Values of other authors as cited in patent publication US20210186070A1, “STEVIA EXTRACT CONTAINING SELECTED STEVIOL GLYCOSIDES AS FLAVOR, SALTY AND SWEETNESS PROFILE MODIFIER” (PureCircle USA Inc., priority 2013, published 2021).

## C=C1C[C@@]23CC[C@H]4[C@@](C)(CCC[C@@]4(C)C(=O)O[C@@H]4O[C@H](CO)[C@@H](O)[C@H](O)[C@H]4O)[C@@H]2CC[C@]1(O[C@@H]1O[C@H](CO)[C@@H](O)[C@H](O[C@@H]2O[C@H](CO)[C@@H](O)[C@H](O)[C@H]2O)[C@H]1O[C@@H]1O[C@H](CO)[C@@H](O)[C@H](O)[C@H]1O)C3 [Rebaudioside A]
  sweetness potency, times higher than sucrose: around 300 times
